The values that follow come from US20250098679A1, “HERBICIDAL PYRIDONE DERIVATIVES” (SYNGENTA CROP PROTECTION AG, priority 2021, published 2025).

Assay type in all cases: in vivo
Common to all, as to settings: evaluated after 13 days

Test [1] has as its system Amaranthus retoflexus (AMARE). Kind of test: Post-emergence Test, Amaranthus retoflexus (AMARE). The arrangement: key to percentage damage caused to the plant, AMARE (five-point scale): 5=81-100%, 4=61-80%, 3=41-60%, 2=21-40%, 1=0-20% damage. How it is done: (§1) Seeds of a variety of test species are sown in standard soil in pots (Setaria faberi (SETFA), Echinochloa crus-galli (ECHCG), Zea mays (ZEAMX), Ipomoea hederacea (IPOHE), Amaranthus palmeri (AMAPA), Amaranthus retoflexus (AMARE)). After 8 days cultivation under controlled conditions in a glasshouse (at 24° C./16° C., day/night; 14 hours light; 65% humidity), the plants are sprayed with an aqueous spray solution derived from the formulation of the technical active ingredient in acetone/water (50:50) solution containing 0.5% Tween 20 (polyoxyethelyene sorbitan monolaurate, CAS RN 9005-64-5). Compounds are applied at 1000 g/ha unless otherwise stated. The test plants are then grown in a glasshouse under controlled conditions in a glasshouse (at 24° C./16° C., day/night; 14 hours light; 65% humidity) and watered twice daily. After 13 days the test is evaluated for the percentage damage caused to the plant. The biological activities are shown in the following table on a five-point scale (5=81-100%; 4=61-80%; 3=41-60%; 2=21-40%; 1=0-20%; -=not tested).

Another test relates to Setaria faberi (SETFA). Kind of test: Post-emergence Test, Setaria faberi (SETFA). The arrangement: key to percentage damage caused to the plant, SETFA (five-point scale): 5=81-100%, 4=61-80%, 3=41-60%, 2=21-40%, 1=0-20% damage. On the procedure:
as §1

Test [2] concerns Ipomoea hederacea (IPOHE). Kind of test: Post-emergence Test, Ipomoea hederacea (IPOHE). The arrangement: key to percentage damage caused to the plant, IPOHE (five-point scale): 5=81-100%, 4=61-80%, 3=41-60%, 2=21-40%, 1=0-20% damage. How it is done: as §1
The subject of test [3] is Amaranthus palmeri (AMAPA). Nature of the test: Post-emergence Test, Amaranthus palmeri (AMAPA). The arrangement: key: 5=81-100%, 4=61-80%, 3=41-60%, 2=21-40%, 1=0-20% damage. How it is done: as §1
In test [4] the test system is Echinochloa crus-galli (ECHCG). Kind of test: Post-emergence Test, Echinochloa crus-galli (ECHCG). The arrangement: key to percentage damage caused to the plant, ECHCG (five-point scale): 5=81-100%, 4=61-80%, 3=41-60%, 2=21-40%, 1=0-20% damage. On the procedure: as §1
In the next test the test system is Zea mays (ZEAMX). Nature of the test: Post-emergence Test, Zea mays (ZEAMX). Set-up: key to percentage damage caused to the plant, ZEAMX (five-point scale): 5=81-100%, 4=61-80%, 3=41-60%, 2=21-40%, 1=0-20% damage. How it is done: as §1

For `CCn1c(Cn2ccnc2C2CC2)cc(=O)c(C(=O)O)c1-c1ccc(Cl)c(Cl)c1` [Compound 95, 6-[(2-cyclopropylimidazol-1-yl)methyl]-2-(3,4-dichlorophenyl)-1-ethyl-4-oxo-pyridine-3-carboxylic acid], the “percentage damage caused to the plant, AMARE (five-point scale)” value in test [1] (1000 g/ha) is 0. Besides, in the test with Setaria faberi (SETFA) (1000 g/ha), the “percentage damage caused to the plant, SETFA (five-point scale)” value was 1 (1=0-20%). The “percentage damage caused to the plant, IPOHE (five-point scale)” value in test [2] (1000 g/ha) is 1 (1=0-20%). Also, in test [3] (1000 g/ha), the “percentage damage caused to the plant, AMAPA (five-point scale)” value is recorded as 1 (1=0-20%). Besides, the “percentage damage caused to the plant, ECHCG (five-point scale)” value in test [4] (1000 g/ha) is 1 (1=0-20%). Further, the “percentage damage caused to the plant, ZEAMX (five-point scale)” value in the test on Zea mays (ZEAMX) (1000 g/ha) is 1 (1=0-20%).

For `CCn1c(Cn2nc3c(c2C(F)F)COCC3)cc(=O)c(C(=O)O)c1-c1ccc(Cl)c(Cl)c1` [Compound 97, 2-(3,4-dichlorophenyl)-6-[[3-(difluoromethyl)-6,7-dihydro-4H-pyrano[4,3-c]pyrazol-2-yl]methyl]-1-ethyl-4-oxo-pyridine-3-carboxylic acid], in test [1] (250 g/Ha), the “percentage damage caused to the plant, AMARE (five-point scale)” value is reported as 1 (1=0-20%). Further, in the test on Setaria faberi (SETFA) (250 g/Ha), the “percentage damage caused to the plant, SETFA (five-point scale)” value was determined as 0. The “percentage damage caused to the plant, IPOHE (five-point scale)” value in test [2] (250 g/Ha) is on record as 0. For the same molecule, in test [3] (250 g/Ha), the “percentage damage caused to the plant, AMAPA (five-point scale)” value is recorded as 1 (1=0-20%). Also, the “percentage damage caused to the plant, ECHCG (five-point scale)” value in test [4] (250 g/Ha) is listed as 1 (1=0-20%). Also, in the test with Zea mays (ZEAMX) (250 g/Ha), the “percentage damage caused to the plant, ZEAMX (five-point scale)” value is reported as 1 (1=0-20%).

As to `CCn1c(Cn2cc3cc(Cl)ccc3n2)cc(=O)c(C(=O)O)c1-c1ccc(Cl)c(Cl)c1` [Compound 99, 6-[(5-chloroindazol-2-yl)methyl]-2-(3,4-dichlorophenyl)-1-ethyl-4-oxo-pyridine-3-carboxylic acid], the “percentage damage caused to the plant, AMARE (five-point scale)” value in test [1] (250 g/Ha) and in test [1] (1000 g/ha) was 0 throughout. For the same molecule, the “percentage damage caused to the plant, SETFA (five-point scale)” value in the test on Setaria faberi (SETFA) (250 g/Ha) and in the test with Setaria faberi (SETFA) (1000 g/ha) was 0 each time. Also, the “percentage damage caused to the plant, IPOHE (five-point scale)” value in test [2] (250 g/Ha) is reported as 0; in test [2] (1000 g/ha), 1 (1=0-20%). For the same molecule, the “percentage damage caused to the plant, AMAPA (five-point scale)” value in test [3] (250 g/Ha) and in test [3] (1000 g/ha) was 0 each time. Further, the “percentage damage caused to the plant, ECHCG (five-point scale)” value in test [4] (250 g/Ha) is given as 1 (1=0-20%); in test [4] (1000 g/ha), 0. In addition, the “percentage damage caused to the plant, ZEAMX (five-point scale)” value in the test with Zea mays (ZEAMX) (250 g/Ha) is 0; in the test with Zea mays (ZEAMX) (1000 g/ha), 1 (1=0-20%).

Regarding `CCn1c(Cn2ncc3ccccc32)cc(=O)c(C(=O)O)c1-c1ccc(Cl)c(Cl)c1` [Compound 105, 2-(3,4-dichlorophenyl)-1-ethyl-6-[indazol-1-ylmethyl)-4-oxo-pyridine-3-carboxylic acid], the “percentage damage caused to the plant, AMARE (five-point scale)” value is reported as 0 in test [1] (250 g/Ha) and 2 (2=21-40%) in test [1] (1000 g/ha). The figures for the “percentage damage caused to the plant, SETFA (five-point scale)” value in the test with Setaria faberi (SETFA) (250 g/Ha) and with Setaria faberi (SETFA) (1000 g/ha) were 0 and 2 (2=21-40%), respectively. The “percentage damage caused to the plant, IPOHE (five-point scale)” value was 0 in test [2] (250 g/Ha) and 4 (4=61-80%) in test [2] (1000 g/ha). Besides, the “percentage damage caused to the plant, AMAPA (five-point scale)” value in test [3] (250 g/Ha) was 0; in test [3] (1000 g/ha), 2 (2=21-40%). For the same molecule, the “percentage damage caused to the plant, ECHCG (five-point scale)” value in test [4] (250 g/Ha) and in test [4] (1000 g/ha) was 3 (3=41-60%) each time. Also, the “percentage damage caused to the plant, ZEAMX (five-point scale)” value is 0 in the test with Zea mays (ZEAMX) (250 g/Ha) and 1 (1=0-20%) in the test with Zea mays (ZEAMX) (1000 g/ha).

For `CCn1c(Cn2cc3ccccc3n2)cc(=O)c(C(=O)O)c1-c1ccc(Cl)c(Cl)c1` [Compound 106, 2-(3,4-dichlorophenyl)-1-ethyl-6-(indazol-2-ylmethyl)-4-oxo-pyridine-3-carboxylic acid], the “percentage damage caused to the plant, AMARE (five-point scale)” value is 0 in test [1] (250 g/Ha) and 1 (1=0-20%) in test [1] (1000 g/ha). Besides, the “percentage damage caused to the plant, SETFA (five-point scale)” value is 0 in the test on Setaria faberi (SETFA) (250 g/Ha) and 1 (1=0-20%) in the test with Setaria faberi (SETFA) (1000 g/ha). For the same molecule, the “percentage damage caused to the plant, IPOHE (five-point scale)” value in test [2] (250 g/Ha) is given as 0; in test [2] (1000 g/ha), 3 (3=41-60%). Moreover, the “percentage damage caused to the plant, AMAPA (five-point scale)” value is listed as 0 in test [3] (250 g/Ha) and 1 (1=0-20%) in test [3] (1000 g/ha). Also, the “percentage damage caused to the plant, ECHCG (five-point scale)” value in test [4] (250 g/Ha) is on record as 2 (2=21-40%); in test [4] (1000 g/ha) it was 1 (1=0-20%). Besides, the “percentage damage caused to the plant, ZEAMX (five-point scale)” value with Zea mays (ZEAMX) (250 g/Ha) and in the test on Zea mays (ZEAMX) (1000 g/ha) was 0 in each case.

With `CCn1c(Cn2nc(C(F)(F)F)c3c2CCOC3)cc(=O)c(C(=O)O)c1-c1ccc(Cl)c(Cl)c1` [Compound 107, 2-(3,4-dichlorophenyl)-1-ethyl-4-oxo-6-[[3-(trifluoromethyl)-6,7-dihydro-4H-pyrano[4,3-c]pyrazol-1-yl]methyl]pyridine-3-carboxylic acid], the figures for the “percentage damage caused to the plant, AMARE (five-point scale)” value in test [1] (250 g/Ha) and in test [1] (1000 g/ha) were 0 and 1 (1=0-20%), respectively. Moreover, the “percentage damage caused to the plant, SETFA (five-point scale)” value in the test on Setaria faberi (SETFA) (250 g/Ha) is listed as 0; with Setaria faberi (SETFA) (1000 g/ha), 1 (1=0-20%). Further, the “percentage damage caused to the plant, IPOHE (five-point scale)” value in test [2] (250 g/Ha) is recorded as 0; in test [2] (1000 g/ha), 2 (2=21-40%). In addition, the “percentage damage caused to the plant, AMAPA (five-point scale)” value is recorded as 0 in test [3] (250 g/Ha) and 1 (1=0-20%) in test [3] (1000 g/ha). The “percentage damage caused to the plant, ECHCG (five-point scale)” value is 2 (2=21-40%) in test [4] (250 g/Ha) and 1 (1=0-20%) in test [4] (1000 g/ha). Also, the “percentage damage caused to the plant, ZEAMX (five-point scale)” value in the test with Zea mays (ZEAMX) (250 g/Ha) and in the test with Zea mays (ZEAMX) (1000 g/ha) was 0 throughout.

As to `CCOC(=O)c1nccn1Cc1cc(=O)c(C(=O)O)c(-c2ccc(Cl)c(Cl)c2)n1CC` [Compound 110, 2-(3,4-dichlorophenyl)-6-[(2-ethoxycarbonylimidazol-1-yl)methyl]-1-ethyl-4-oxo-pyridine-3-carboxylic acid], the “percentage damage caused to the plant, AMARE (five-point scale)” value in test [1] (1000 g/ha) amounted to 0. Moreover, in the test with Setaria faberi (SETFA) (1000 g/ha), the “percentage damage caused to the plant, SETFA (five-point scale)” value was 1 (1=0-20%). For the same molecule, the “percentage damage caused to the plant, IPOHE (five-point scale)” value in test [2] (1000 g/ha) is listed as 1 (1=0-20%). Moreover, the “percentage damage caused to the plant, AMAPA (five-point scale)” value in test [3] (1000 g/ha) is reported as 0. The “percentage damage caused to the plant, ECHCG (five-point scale)” value in test [4] (1000 g/ha) is given as 1 (1=0-20%). Besides, the “percentage damage caused to the plant, ZEAMX (five-point scale)” value with Zea mays (ZEAMX) (1000 g/ha) was 0.

For the molecule `CCn1c(Cn2cnc(C(=O)OC)c2C(=O)OC)cc(=O)c(C(=O)O)c1-c1ccc(Cl)c(Cl)c1` [Compound 111, 6-[[4,5-bis(methoxycarbonyl)imidazol-1-yl]methyl]-2-(3,4-dichlorophenyl)-1-ethyl-4-oxo-pyridine-3-carboxylic acid], in test [1] (1000 g/ha), the “percentage damage caused to the plant, AMARE (five-point scale)” value was 1 (1=0-20%). For the same molecule, the “percentage damage caused to the plant, SETFA (five-point scale)” value in the test on Setaria faberi (SETFA) (1000 g/ha) is on record as 1 (1=0-20%). In test [2] (1000 g/ha), the “percentage damage caused to the plant, IPOHE (five-point scale)” value is 0. Further, the “percentage damage caused to the plant, AMAPA (five-point scale)” value in test [3] (1000 g/ha) is on record as 1 (1=0-20%). In addition, in test [4] (1000 g/ha), the “percentage damage caused to the plant, ECHCG (five-point scale)” value is on record as 2 (2=21-40%). In the test with Zea mays (ZEAMX) (1000 g/ha), the “percentage damage caused to the plant, ZEAMX (five-point scale)” value was determined as 0.

Regarding `CCn1c(Cn2cnc(C#N)c2C#N)cc(=O)c(C(=O)O)c1-c1ccc(Cl)c(Cl)c1` [Compound 113, 2-(3,4-dichlorophenyl)-6-[(4,5-dicyanoimidazol-1-yl)methyl]-1-ethyl-4-oxo-pyridine-3-carboxylic acid], the “percentage damage caused to the plant, AMARE (five-point scale)” value in test [1] (1000 g/ha) was 1 (1=0-20%). Moreover, the “percentage damage caused to the plant, SETFA (five-point scale)” value with Setaria faberi (SETFA) (1000 g/ha) is listed as 1 (1=0-20%). Moreover, in test [2] (1000 g/ha), the “percentage damage caused to the plant, IPOHE (five-point scale)” value came to 0. In addition, the “percentage damage caused to the plant, AMAPA (five-point scale)” value in test [3] (1000 g/ha) is 1 (1=0-20%). Further, the “percentage damage caused to the plant, ECHCG (five-point scale)” value in test [4] (1000 g/ha) is 1 (1=0-20%). Besides, the “percentage damage caused to the plant, ZEAMX (five-point scale)” value in the test on Zea mays (ZEAMX) (1000 g/ha) is 1 (1=0-20%).
